Reference: PMC6054100, “Exploring the chemical space of the lysine-binding pocket of the first kringle domain of hepatocyte growth factor/scatter factor (HGF/SF) yields a new class of inhibitors of HGF/SF-MET binding” (Chemical Science, 2015)

Assays:
[1] = target: T1, lysine-binding pocket of the kringle domain of NK1 (Homo sapiens, UniProt P14210); assay: Soaking into NK1 apo crystals, X-ray crystallography; conditions: soaked into NK1 apo crystals
T1 construct: made in house; host or cells: Pichia pastoris
Method: Next, three classes of piperazine-like sulphonated compounds containing piperazine ((H)EPPS and PIPES), morpholine (MES and MOPS), or cyclohexane (CHES and CAPS) rings were studied for their binding to NK1 (Table 1), alongside another five sulphonated compounds selected from a chemical fragment library (Table 2).
NK1 buffered in 150 mM NaCl, 50 mM Tris, pH 7.5 (apo-NK1 and all soaking experiments) was concentrated to ∼20 mg mL^–1 using a Vivaspin device with a 10 kDa cut-off membrane (Sartorius Biolab). Crystallisation was carried out in Linbro plates by the vapour diffusion hanging drop technique using a protein : precipitant ratio of 1 : 1 at 20 °C. Previously NK1 has been crystallised in 18% PEG 4000, 200 mM sodium acetate and 150 mM Tris pH 8.5 as precipitant.[19] Here final crystallisation conditions (19% PEG 4000, 200 mM sodium acetate and 150 mM Tris pH 7.5) were optimised around those to achieve high-resolution apo structure. Details of compound soaking, X-ray data collection and structure determination are given in the ESI ^† section of the manuscript. […]
For this, 1 M stock solutions were prepared in DMSO (fragments) or water (piperazine- like compounds) and the pH adjusted to a value within their buffering range with either HCl or NaOH. The seven piperazine- like compounds and their respective pH are: HEPES (pH 7.6), (H)EPPS (pH 7.4), PIPES (pH 7.0), MES (pH 5.8), MOPS (pH 7.2), CHES (pH 8.6) and CAPS (pH 9.7). Secondary stocks of the compounds at 50 mM were prepared in the […]
respective mother liquor and soaked for up to 48 hours.
MB605 was solubilised in 50% DMSO at 20 mM concentration (1% f inal DMSO concentration in the drop) in order to minimize adverse effects of DMSO on the protein crystal. 25% ethylene glycol was used as the cryoprotective agent.
X-ray data collection and processing
X-ray datasets were collected either at the European Synchrotron Radiation Facility (ESRF, Grenoble, France), the Diamond Light Source (DLS, Oxford, UK) or in-house using the X8 PROTEUM (Bruker AXS) at the Department of Biochemistry, University of Cambridge.
Datasets of at least 180° were collected. Raw data collected at synchrotrons were integrated, merged, scaled and reduced using DENZO and […].2 Raw data […]
collected in- house were integrated, merged, scaled and reduced using the PROTEUM 2 software package .3 The CCP4 suite of crystallographic programs (Collaborative

NK1 [2] = target: T2, NK1 (Homo sapiens, UniProt P14210); assay: SPR steady-state binding to immobilized NK1 (Biacore T100); parameters: made in house; host or cells: Pichia pastoris
Method: Binding constants of piperazine-like compounds and fragments were determined using a Biacore T100 instrument. NK1 was immobilized on a CM5 chip by amine coupling to a density of 6000 RU. Compounds were stored as 100 mM stock solutions in water and serial dilutions were prepared in the running buffer (PBS pH 7.4, 0.05% Tween 20). The compound solutions were injected onto the surface of the chip at a flow rate of 30 μL min^–1, contact time was 1 min and dissociation time 1 min. Sensorgrams were analysed using the Biacore T100 evaluation software and the binding constants determined.

NK1 [3] = target: T2, NK1; assay: SPR fragment library screening against NK1; assay type: binding; parameters: made in house; host or cells: Pichia pastoris; conditions: for Ranking order: based on fragment screening, rank among the 71 NK1 hits (ESI Tables S3-S7); for SPR response: normalised relative value against NK1
Method: Supplementary Materials and Methods
Fragment library screening and data analysis
Met567 (soluble truncated f ragment of the MET ectodomain, residues 25- 567), NK1 and t he SPH domain were immobilized on CM5 chips by amine coupling. NK1 was diluted into 10 m M phosphate pH 7.0 and the SPH domain into 10 mM acetate pH 5.5 to a final concentration of 2.5 μM and 1 μM, respectively, for coupling. The immobilization wizard within the Biacore T100 software was set to “aim for immobiliz ed level” of 8000 RU to achieve complete saturation of the chip surface.
W ith minor deviations, the procedure and conditions outlined below were used f or a ll screening s of an in-house fragment library of 1338 members against individual target proteins. The running buffer was PBS pH 7.4, 0.05% Tween 20, 0.25% DMSO (1% DMSO for Met567). Fragments were stored as 100 mM stock solutions in DMSO. Prior to screening, fragment samples were diluted to 500 μM (1 mM f or Met567) in running buffer.
Screening was performed in 96- we ll plates at a flow rate of 30 μl min-1 with 1 min sample injection f ollowed by dissociation f or 1 min and surf ace regeneration using 1 M NaCl f or 30 […]
post-regeneration baseline exceeded the pre- sample baseline by more than 10 RU, a second regeneration cycle with 50% ethylene glycol was used. In order to be able to correct for small variations in DMSO concentration between samples, eight solvent samples ranging from 0.012 to 1.5% DMSO were injected every 40th cycle. To monitor the binding capacity of the NK1, SPH and Met567 surfaces throughout the screening, injections of 500 μM HEPES (NK1), 0.25 μM Met567 (SPH) and 0.2 μM NK1 and 1% DMSO (Met567) were carried out every 40th cycle. The flow cell temperature was 25°C. NK1 and the SPH domain were immobilized on the same chip (channels 2 and 3 respectively) and were theref ore screened in parallel. Met567 was screened separately and results are published in an accompanying paper (W in t er et al. 2015, in revision).
For data analysis, fir st, all responses were reference and solvent corrected. 1 Next, equilibrium binding for every fragment was determined and hits established by applying several filters: sensorgram shape, upper and lower threshold. Typical sensorgrams from fragment screening show “square curves” in SPR due to the fast on and off rates and fragments not showing this response were discarded from further analysis. Binding levels are represented as response units (RU) but the SPR signal is a convolution of multiple parameters including target coupling density, target -binding activity, target molecular weight and molecular weight of each injected fragment. To be able to identif y hits accurately and to be able to compare responses between different plates and targets, data were normalised against these factors. First the theoretical maximum response for each fragment was calculated using equation 1:
RRmmm = CCCCCCCC ddCdCdd× MMffmCmdCd (Equation 1)
This RUmax value diff ers for each protein target because it depends on the molecular weight of the protein and the amount of protein immobilized on the chip (coupling density). The RUmax was then used to calculate the normalised relative SPR response:
NNNNNNNNNN NNNNr NrN SSR NNNrNrNN = RRcppppcppc× 100% (Equation 2) […]
fragment should cause upon binding. 100% response would be 1:1 binding wit h levels above 100% implying over-stoichiometric binding. […]
Fragment library screening to identify small molecule binders

NK1 [4] = target: T2, NK1; assay: 1H-15N TROSY-HSQC NMR chemical shift titration of 15N-labelled NK1; assay type: binding; parameters: made in house; host or cells: Pichia pastoris; conditions: steady-state binding constants; piperazine-like compounds; 0.18 mM NK1, pH 7.2, 310 K; read-out: KD in NMR
Method: Ligand screening was performed by monitoring the chemical shift variations in ^1H-^15N TROSY-HSQC NMR spectra of the uniformly [^15N]-labelled NK1 protein (Fragai et al. 2015, in prep.) upon the addition of increasing concentrations of the investigated compounds.[43]–[45] The experiments were performed using 0.18 mM protein samples in 25 mM Tris, 100 mM NaCl and 0.01% sodium azide, at pH 7.2 with 10% D2O. The spectra were recorded at 310 K on a Bruker AVANCE 900 MHz spectrometer equipped with a TXI cryo-probe. Sample solutions were prepared from 1 M or 100 mM DMSO stock solutions of the ligands. The dissociation constant values (KD) were calculated by plotting the weighted average ^1H and ^15N chemical shifts of the residues experiencing significant variations as a function of ligand concentration added during the titration and considering the one site binding model.[46]

[5] = steady-state binding constant from SPR (ESI Tables S3-S7), read-out: KD
[6] = fragments 500 μM (ESI Tables S3-S7)
[7] = steady-state binding constant from SPR, fragment hits (Table 3, text), read-out: KD
[8] = initial fragment screening, fragments 500 μM (Table 3)

T2 sequence (P14210 32-210 isoform P14210-6 limits assumed): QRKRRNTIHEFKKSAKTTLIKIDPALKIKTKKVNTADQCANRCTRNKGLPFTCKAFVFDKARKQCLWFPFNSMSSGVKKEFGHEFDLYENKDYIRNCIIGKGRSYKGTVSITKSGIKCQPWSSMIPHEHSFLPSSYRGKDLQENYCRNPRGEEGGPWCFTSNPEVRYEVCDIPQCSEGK
T1 sequence (P14210 32-210 isoform P14210-6 limits assumed): as above

| Structure (SMILES) | Kd (NK1 [2]; [5]) [µM] | Ranking order (NK1 [3]) | SPR response (NK1 [3]; [6]) [%] | other results |
| --- | --- | --- | --- | --- |
| O=S(=O)(O)CCCO [2FA, 3-Hydroxypropane-1-sulphonic acid] | – | – | – | binding in the lysine-binding pocket (crystal structure) [1]: bound in the lysine-binding pocket |
| FC(F)(F)c1cc[nH]n1 [MB925] | 1300 | 48 | 52 | – |
| Cc1cc(N)n(C)n1 [MB935] | 1000 | 41 | 54 | – |
| Cc1cc(N)[nH]n1 [MB936] | 30000 | 39 | 56 | – |
| CNCc1ccncc1 [MB1003] | 6400 | 6 | 107 | – |
| NC(=S)N1CCOCC1 [MB1082] | – | 43 | 53 | Kd (NK1 [2]; [7]): 370 ± 40 µM; SPR response (NK1 [3]; [8]): 53% |
| NC(=S)c1ncc(C(F)(F)F)cc1N1CCCC1 [MB1218] | 17300 | 37 | 57 | – |
| Cc1nc(-c2ccc(C#N)cc2)cs1 [MB1236] | 1200 | 19 | 83 | – |
| Cc1ccsc1CN [MB1237] | 4200 | 4 | 118 | – |
| Cc1nc(C#N)cs1 [MB1250] | 1800 | 3 | 126 | – |
| Cc1nc(C(N)=S)cs1 [MB1252] | 5200 | 10 | 101 | – |
| COC(=O)c1ccccc1F [MB1253] | 2900 | 11 | 98 | – |
| Cc1ccc(C#N)c(=O)[nH]1 [MB1260] | 5600 | 8 | 105 | – |
| COc1ccc(C#N)cn1 [MB1261] | – | 12 | 95 | Kd (NK1 [2]; [7]): 350 ± 40 µM; SPR response (NK1 [3]; [8]): 95% |
| CC(=O)Nc1ccccc1F [MB1267] | 1600 | 16 | 90 | – |
| Cc1cccc(CN)c1C [MB1274] | 1600 | 7 | 105 | – |
| Cc1cccc(C)c1C#N [MB1283] | – | 13 | 94 | KD (NK1 [2]; steady-state binding constant from SPR, fragment hits (Table 3, text)): lowest affinity |
| Cc1cccc(C(N)=O)c1C [MB1284] | – | 15 | 90 | Kd (NK1 [2]; [7]): 860 ± 70 µM; SPR response (NK1 [3]; [8]): 90% |
| CNCc1cccnc1 [MB1290] | 1640 | 9 | 102 | – |
| Nc1ccc(OC(F)F)cc1 [MB1293] | 5000 | 22 | 72 | – |
| Cc1cc(C)on1 [MB1299] | 2200 | 2 | 131 | – |
| Cc1ccc(C(=O)O)cc1Cl [MB1306] | 2500 | 21 | 77 | – |
| CCCc1ccc(C(C)=O)cc1 [MB1315] | – | 47 | 52 | Kd (NK1 [2]; [7]): 940 ± 90 µM; SPR response (NK1 [3]; [8]): 52% |
| Cc1cc(Cl)ccc1C(=O)O [MB1318] | – | 33 | 61 | Kd (NK1 [2]; [7]): 360 ± 40 µM; SPR response (NK1 [3]; [8]): 61% |
| O=S(=O)(O)CCN1CCN(CCS(=O)(=O)O)CC1 [PIPES, reference compound] | – | – | – | Kd (NK1 [4]): 45900 ± 4700 µM; Kd (NK1 [2]; steady-state binding constants, piperazine-like compounds, immobilized NK1, PBS pH 7.4, read-out: KD in SPR): 26600 ± 600 µM |
